Read-outs that look alike come from different tables or passages of the source. Marks after values point to notes of the source that are not given here.
How the values were obtained:
[1] = system: hyperuricemic gout subjects with moderate to severe renal impairment; test: Example 1 randomized double-blind 12 month study: serum urate (sUA); type: in vivo, human
From the text: Randomization was stratified at baseline using 3 strata: subjects taking an angiotensin receptor blocker (ARB), subjects taking an angiotensin converting enzyme inhibitors (ACEi), or subjects not taking an ARB or an ACEi. […] Serum samples for the analysis of sUA were collected as part of the standard chemistry panel at the time points stipulated in Schedule of Study Procedures (Table 1). All samples were collected in accordance with standard laboratory procedures. Serum urate concentrations were determined using the enzymatic method as performed by the Central Laboratory and were blinded to the Sponsor and investigative site beginning at Day 1 through the Month 12/ET visits. Missing data in all efficacy analyses was imputed with the last available postbaseline observation carrying forward (LOCF). A subject was included in the analysis of a specific efficacy variable only when there was both a baseline value and at least 1 value during the double-blind treatment period. […] The percentage of subjects with sUA<6 mg/dL at Month 12 was summarized by treatment group, and the treatment groups were compared by a CMH test with prior use of an ARB or ACEi as a stratification variable. In addition, change from baseline and percent change from Baseline in sUA were summarized by visit and by treatment.

[2] = Study TMX-99-001: febuxostat plasma pharmacokinetics; type: in vivo, human; parameters: AUC24/Dose: unit not given here; settings: mean; for MRT inf / AUC / partial AUC from 0 to 4 hours: human, plasma, oral; for partial AUC from 0 to 4 hours: read-out: AUC0-4

Tmax ([2]; IR 30 mg BID): 0.70 h
Tmin ([2]; IR 30 mg BID): 24.00 h
AUC24/Dose ([2]; IR 30 mg BID, AM + PM dose (60 mg)): 103.73
Cmax ([2]; IR 30 mg BID, Cmax following AM dose): 1488.00 ng/mL
Cmax/dose ([2]; IR 30 mg BID, Cmax following AM dose/AM dose (30 mg)): 49.60 ng/mL/mg
Cmin ([2]; IR 30 mg BID, terminal phase of PM dose): 59.58 ng/mL
AUC24/Dose ([2]; IR 30 mg single dose): 84.16
Cmax ([2]; IR 30 mg single dose): 1283.54 ng/mL
Cmax/dose ([2]; IR 30 mg single dose): 42.78 ng/mL/mg
Tmax ([2]; IR 30 mg single dose): 0.89 h
Tmin ([2]; IR 30 mg single dose): 16.89 h
Cmin ([2]; IR 30 mg single dose, terminal phase at or before 24 hours): 17.50 ng/mL
AUC4-24 ([2]; IR 40 mg single dose): 941.11 ng·h/mL
AUC24 ([2]; IR 40 mg single dose): 4295.13 ng·h/mL
AUC24/Dose ([2]; IR 40 mg single dose): 107.38
Cmax ([2]; IR 40 mg single dose): 1822.11 ng/mL
Cmax/dose ([2]; IR 40 mg single dose): 45.55 ng/mL/mg
Tmax ([2]; IR 40 mg single dose): 1.19 h
Tmin ([2]; IR 40 mg single dose): 21.00 h
Cmin ([2]; IR 40 mg single dose, terminal phase at or before 24 hours): 15.13 ng/mL
AUC0-4 ([2]; IR 50 mg single dose): 3116.06 ng·h/mL
AUC24 ([2]; IR 50 mg single dose): 4374.36 ng·h/mL
AUC24/Dose ([2]; IR 50 mg single dose): 87.49
Cmax ([2]; IR 50 mg single dose): 1791.71 ng/mL
Cmax/dose ([2]; IR 50 mg single dose): 35.83 ng/mL/mg
Tmax ([2]; IR 50 mg single dose): 1.14 h
Tmin ([2]; IR 50 mg single dose): 22.00 h
Cmin ([2]; IR 50 mg single dose, terminal phase at or before 24 hours): 15.98 ng/mL
AUC24 ([2]; IR 70 mg single dose): 6948.21 ng·h/mL
AUC24/Dose ([2]; IR 70 mg single dose): 99.26
Cmax ([2]; IR 70 mg single dose): 2689.91 ng/mL
Cmax/dose ([2]; IR 70 mg single dose): 38.43 ng/mL/mg
Tmax ([2]; IR 70 mg single dose): 1.10 h
Tmin ([2]; IR 70 mg single dose): 23.20 h
Cmin ([2]; IR 70 mg single dose, terminal phase at or before 24 hours): 23.81 ng/mL
AUC0-4 ([2]; IR 90 mg single dose): 6893.00 ng·h/mL
AUC24/Dose ([2]; IR 90 mg single dose): 104.36
Cmax ([2]; IR 90 mg single dose): 4061.63 ng/mL
Cmax/dose ([2]; IR 90 mg single dose): 45.13 ng/mL/mg
Tmin ([2]; IR 90 mg single dose): 24.00 h
Cmin ([2]; IR 90 mg single dose, terminal phase at or before 24 hours): 27.53 ng/mL
AUC24 ([2]; IR 120 mg single dose): 11959.93 ng·h/mL
AUC24/Dose ([2]; IR 120 mg single dose): 99.67
Cmax ([2]; IR 120 mg single dose): 5307.58 ng/mL
Cmax/dose ([2]; IR 120 mg single dose): 44.23 ng/mL/mg
Tmax ([2]; IR 120 mg single dose): 1.11 h
Tmin ([2]; IR 120 mg single dose): 24.00 h
Cmin ([2]; IR 120 mg single dose, terminal phase at or before 24 hours): 41.49 ng/mL
AUC24 ([2]; IR 160 mg single dose): 22282.12 ng·h/mL
AUC24/Dose ([2]; IR 160 mg single dose): 139.26
Cmax ([2]; IR 160 mg single dose): 8771.07 ng/mL
Cmax/dose ([2]; IR 160 mg single dose): 54.82 ng/mL/mg
Tmax ([2]; IR 160 mg single dose): 0.80 h
Tmin ([2]; IR 160 mg single dose): 22.80 h
Cmin ([2]; IR 160 mg single dose, terminal phase at or before 24 hours): 79.88 ng/mL
AUC24 ([2]; IR 180 mg single dose): 23954.54 ng·h/mL
AUC24/Dose ([2]; IR 180 mg single dose): 133.08
Cmax ([2]; IR 180 mg single dose): 8048.76 ng/mL
Cmax/dose ([2]; IR 180 mg single dose): 44.72 ng/mL/mg
Tmin ([2]; IR 180 mg single dose): 24.00 h
Cmin ([2]; IR 180 mg single dose, terminal phase at or before 24 hours): 75.73 ng/mL
AUC24 ([2]; IR 240 mg single dose): 34976.26 ng·h/mL
AUC24/Dose ([2]; IR 240 mg single dose): 145.73
Cmax ([2]; IR 240 mg single dose): 11263.03 ng/mL
Cmax/dose ([2]; IR 240 mg single dose): 46.93 ng/mL/mg
Tmax ([2]; IR 240 mg single dose): 0.94 h
Tmin ([2]; IR 240 mg single dose): 24.00 h
Cmin ([2]; IR 240 mg single dose, terminal phase at or before 24 hours): 71.30 ng/mL
MRT inf ([2]; 30 mg, IR 30 mg BID): 18.6 h
AUC ([2]; 30 mg, IR 30 mg BID, following AM and PM dose, read-out: AUC4-24): 3980 ng·h/mL
AUC ([2]; 30 mg, IR 30 mg BID, following AM and PM dose, read-out: AUC24): 6220 ng·h/mL
partial AUC from 0 to 4 hours ([2]; 30 mg, IR 30 mg BID, following AM dose): 2240 ng·h/mL
MRT inf ([2]; 30 mg, IR 30 mg single dose): 4.99 h
partial AUC from 0 to 4 hours ([2]; 30 mg, IR 30 mg single dose): 1900 ng·h/mL
AUC ([2]; 30 mg, IR 30 mg single dose, read-out: AUC4-24): 629 ng·h/mL
AUC ([2]; 30 mg, IR 30 mg single dose, read-out: AUC24): 2520 ng·h/mL
MRT inf ([2]; 40 mg, IR 40 mg single dose): 4.54 h
partial AUC from 0 to 4 hours ([2]; 40 mg, IR 40 mg single dose): 3350 ng·h/mL
MRT inf ([2]; 50 mg, IR 50 mg single dose): 5 h
AUC ([2]; 50 mg, IR 50 mg single dose, read-out: AUC4-24): 1260 ng·h/mL
MRT inf ([2]; 70 mg, IR 70 mg single dose): 5 h
partial AUC from 0 to 4 hours ([2]; 70 mg, IR 70 mg single dose): 5280 ng·h/mL
AUC ([2]; 70 mg, IR 70 mg single dose, read-out: AUC4-24): 1670 ng·h/mL
MRT inf ([2]; 90 mg, IR 90 mg single dose): 5.81 h
AUC ([2]; 90 mg, IR 90 mg single dose, read-out: AUC4-24): 2500 ng·h/mL
AUC ([2]; 90 mg, IR 90 mg single dose, read-out: AUC24): 9390 ng·h/mL
MRT inf ([2]; 120 mg, IR 120 mg single dose): 5.43 h
partial AUC from 0 to 4 hours ([2]; 120 mg, IR 120 mg single dose): 8590 ng·h/mL
AUC ([2]; 120 mg, IR 120 mg single dose, read-out: AUC4-24): 3370 ng·h/mL
MRT inf ([2]; 160 mg, IR 160 mg single dose): 4.65 h
partial AUC from 0 to 4 hours ([2]; 160 mg, IR 160 mg single dose): 16400 ng·h/mL
AUC ([2]; 160 mg, IR 160 mg single dose, read-out: AUC4-24): 5840 ng·h/mL
MRT inf ([2]; 180 mg, IR 180 mg single dose): 5.53 h
partial AUC from 0 to 4 hours ([2]; 180 mg, IR 180 mg single dose): 16800 ng·h/mL
AUC ([2]; 180 mg, IR 180 mg single dose, read-out: AUC4-24): 7150 ng·h/mL
MRT inf ([2]; 240 mg, IR 240 mg single dose): 4.32 h
partial AUC from 0 to 4 hours ([2]; 240 mg, IR 240 mg single dose): 25100 ng·h/mL
AUC ([2]; 240 mg, IR 240 mg single dose, read-out: AUC4-24): 9900 ng·h/mL
Compound: Cc1nc(-c2ccc(OCC(C)C)c(C#N)c2)sc1C(=O)O [Febuxostat, 2-[3-cyano-4-(2-methylpropoxy)phenyl]-4-methylthiazole-5-carboxylic acid]
Percentage of Subjects with sUA < 6.0 mg/dL ([1]; 30 mg BID, Day 14): 71.9 (23/32) %
Percentage of Subjects with sUA < 6.0 mg/dL ([1]; 30 mg BID, Month 1): 71.9 (23/32) %
Percentage of Subjects with sUA < 6.0 mg/dL ([1]; 30 mg BID, Month 3): 78.1 (25/32) %
Percentage of Subjects with sUA < 6.0 mg/dL ([1]; 30 mg BID, Month 6): 65.6 (21/32)* %
Serum urate change from Baseline, LS mean (SE) ([1]; 30 mg BID, Month 6): −5.08 (0.304) mg/dL
Serum urate change from Baseline, LS mean difference (SE) from placebo group ([1]; 30 mg BID, Month 6): −5.15 (0.428) mg/dL
Percentage of Subjects with sUA < 6.0 mg/dL ([1]; 30 mg BID, Month 9): 68.8 (22/32) %
Percentage of Subjects with sUA < 6.0 mg/dL ([1]; 30 mg BID, Month 12): 68.8 (22/32)* %
Serum urate change from Baseline, LS mean (SE) ([1]; 30 mg BID, Month 12): −4.97 (0.318) mg/dL
Serum urate change from Baseline, LS mean difference (SE) from placebo group ([1]; 30 mg BID, Month 12): −4.82 (0.447) mg/dL
Serum urate change from Baseline, LS mean (SE) ([1]; 30 mg BID, Month 12, listed as febuxostat): -4.97 mg/dL
Percentage of Subjects with sUA < 6.0 mg/dL ([1]; 40/80 mg QD, Day 14): 33.3 (10/30) %
Percentage of Subjects with sUA < 6.0 mg/dL ([1]; 40/80 mg QD, Month 1): 35.5 (11/31) %
Percentage of Subjects with sUA < 6.0 mg/dL ([1]; 40/80 mg QD, Month 3): 58.1 (18/31) %
Percentage of Subjects with sUA < 6.0 mg/dL ([1]; 40/80 mg QD, Month 6): 51.6 (16/31)* %
Serum urate change from Baseline, LS mean (SE) ([1]; 40/80 mg QD, Month 6): −4.29 (0.309) mg/dL
Serum urate change from Baseline, LS mean difference (SE) from placebo group ([1]; 40/80 mg QD, Month 6): −4.36 (0.431) mg/dL
Percentage of Subjects with sUA < 6.0 mg/dL ([1]; 40/80 mg QD, Month 9): 58.1 (18/31) %
Percentage of Subjects with sUA < 6.0 mg/dL ([1]; 40/80 mg QD, Month 12): 45.2 (14/31)* %
Serum urate change from Baseline, LS mean (SE) ([1]; 40/80 mg QD, Month 12): −4.17 (0.323) mg/dL
Serum urate change from Baseline, LS mean difference (SE) from placebo group ([1]; 40/80 mg QD, Month 12): −4.02 (0.451) mg/dL
Serum urate change from Baseline, LS mean (SE) ([1]; 40/80 mg QD, Month 12, listed as febuxostat): -4.17 mg/dL

Source: US20180311217A1, “METHODS OF TREATMENT AND COMPOSITIONS WITH XANTHINE OXIDASE INHIBITORS” (Takeda Pharmaceuticals U.S.A., Inc., priority 2013, published 2018)
